One assay deals with T1, ADAM17 (Homo sapiens, UniProt P78536).
T1 construct: kind gift of Franka Scharfenberg, University of Kiel
Nature of the assay: ADAM17 fluorometric inhibition assay. The assay is classed as biochemical. As to conditions: recombinant enzyme, mean of three independent experiments in duplicate, read-out: In vitro inhibitory activity IC50 on ADAM17. The protocol: The newly synthesized bivalent derivatives 1–3 were then tested in vitro on human recombinant ADAM8 in comparison with JG26 by a fluorometric assay. The inhibitory activity against a panel of MMPs and ADAM10/17 was determined as well to assess their selectivity profile.
(RFU). Percent of inhibition was calculated from control reactions without the inhibitor. IC50 was determined using the formula: v i/v o = 1/(1 + [I]/ IC50), where v i is the initial velocity of substrate cleavage in the presence of the inhibitor at concentration [I] and v o is the initial velocity in the absence of the inhibitor. Results were analyzed using SoftMax Pro software (version 5.4.3, Molecular Devices, Sunnyvale, CA) and Prism Software version 5.0 (GraphPad Software, Inc., La Jolla, CA, USA).
ADAM8 and ADAM17 inhibition assays
Recombinant ADAM8 and ADAM17 (kind gift of Franka Scharfenberg, University of Kiel) were diluted in assay buffer (25 mM Tris HCl, pH 8.0. 6x10-4 % Brij, 10 mM CaCl2, 10 mM ZnCl2) to a working concentration of 250 ng and incubated with inhibitors for 45 min in a total volume of 50 µL.
The fluorescent substrate PepDAB1310 was added in a concentration of 10 µM (in a volume of 50 µL). […]

For assay [1], the system named is ADAM8-dependent shedding of CD23 in double-stable HEK cells (ADAM8/CD23). Nature of the assay: Cell-based CD23 shedding assay (soluble CD23 ELISA). To be noted: Homo sapiens, HEK293, 24 h incubation, 125 nM to 10 μM, ELISA of supernatants, read-out: IC50 for shedding of CD23 (soluble CD23 release). The protocol: Next, these compounds were tested for their ability to inhibit the shedding of an ADAM8-dependent cell surface protein, the low affinity IgE receptor CD23, […]. In brief, a human embryonic kidney (HEK) cell line expressing ADAM8 and CD23[13] was incubated with different concentrations of inhibitors, and the release of soluble CD23 in the cell supernatants was determined by a CD23 enzyme-linked immunosorbent assay (ELISA) (Figure 4).
Figure 4 Effects of new compounds 1–3 and JG26 (125 nM to 10 μM) on the shedding of CD23 in a cell-based assay using double-stable HEK cells (ADAM8/CD23). After the incubation of cells with 1–3 and JG26 for 24 h, cell supernatants were collected and subjected to an ELISA to determine the amount of soluble CD23. Data are the mean values from three independent experiments performed in triplicate. […]
VII. Biological Activity on cells
Cell-based shedding assay
HEK293 cells stably transfected with ADAM8 and CD23 were incubated for 24 h at 37°C in the presence of inhibitors in concentrations indicated in DMEM medium supplemented with 10% fetal calf serum. A human soluble CD23 ELISA (R&D Systems, Biotechne, Wiesbaden) was used to detect ADAM8-dependent release of soluble CD23 in the cell culture medium. ELISA experiments were performed in three independent experiments in triplicates. The relative CD23 release (control = 100%) was determined for all samples. […]
(An ELISA detects its analyte on a solid surface through an enzyme-linked reagent.)

pIC50: −log10 of the molar value. Where only a bound is given, the exact number is not on record here.

T1 sequence (P78536 215-824, species assumed): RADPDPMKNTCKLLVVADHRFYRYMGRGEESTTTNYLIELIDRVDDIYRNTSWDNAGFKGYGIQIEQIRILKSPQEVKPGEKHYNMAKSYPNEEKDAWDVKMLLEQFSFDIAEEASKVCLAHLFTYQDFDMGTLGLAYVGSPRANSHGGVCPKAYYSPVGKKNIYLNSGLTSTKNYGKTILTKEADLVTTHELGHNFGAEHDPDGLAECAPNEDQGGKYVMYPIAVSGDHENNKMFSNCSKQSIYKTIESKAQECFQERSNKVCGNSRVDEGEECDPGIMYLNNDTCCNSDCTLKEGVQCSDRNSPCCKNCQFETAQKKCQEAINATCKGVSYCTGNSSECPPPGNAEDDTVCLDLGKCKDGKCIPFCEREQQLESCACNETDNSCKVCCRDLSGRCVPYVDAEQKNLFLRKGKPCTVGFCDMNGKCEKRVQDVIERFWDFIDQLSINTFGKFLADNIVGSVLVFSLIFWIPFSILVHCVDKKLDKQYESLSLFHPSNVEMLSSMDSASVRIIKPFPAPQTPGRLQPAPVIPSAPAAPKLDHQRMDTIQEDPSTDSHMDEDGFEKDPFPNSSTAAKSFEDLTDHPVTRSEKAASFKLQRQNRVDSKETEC

Consider `O=C(NCCC[C@@H](NS(=O)(=O)c1ccc(OCc2cc(Br)cc(Br)c2)cc1)C(=O)NO)c1cccc(C(=O)NCCC[C@@H](NS(=O)(=O)c2ccc(OCc3cc(Br)cc(Br)c3)cc2)C(=O)NO)c1` [Compound 2], for which the figures for the pIC50 (on ADAM17; in assay [1]) were 7.62 and 6.46, respectively.
With `O=C(NCCC[C@@H](NS(=O)(=O)c1ccc(OCc2cc(Br)cc(Br)c2)cc1)C(=O)NO)NCCC[C@@H](NS(=O)(=O)c1ccc(OCc2cc(Br)cc(Br)c2)cc1)C(=O)NO` [Compound 3], the figures for the pIC50 (at ADAM17; in assay [1]) were 7.26 and 6.10, respectively.
The like results for `NC(=O)NCCC[C@@H](NS(=O)(=O)c1ccc(OCc2cc(Br)cc(Br)c2)cc1)C(=O)NO` [JG26, reference compound] were, in that order, 8.72 and 6.92.
The matching figures for `O=C(CCCNC(=O)c1cccc(C(=O)NCCCC(=O)NCCC[C@@H](NS(=O)(=O)c2ccc(OCc3cc(Br)cc(Br)c3)cc2)C(=O)NO)c1)NCCC[C@@H](NS(=O)(=O)c1ccc(OCc2cc(Br)cc(Br)c2)cc1)C(=O)NO` [Compound 1]: 7.28 and under 5.82.

The values are drawn from article PMC8805605, “Discovery of Dimeric Arylsulfonamides as Potent ADAM8 Inhibitors” (ACS Medicinal Chemistry Letters, 2021).
